Results taken from patent US20040224935A1, “Topical antiandrogenic steroids” (Endorecherche, Inc., priority 2003, published 2004).
Where two headings read alike, the source gives them in different places.

Assays:
[1] = system: Hamster's ear sebaceous glands; assay: Topical antiandrogenic activity, histomorphometry of the ear sebaceous glands in the hamster; type: in vivo, Male Golden Syrian hamster; conditions: Mesocricetus auratus, 336 h, once daily, 14 days, sebaceous gland area, read-out: Antiandrogenic activity in Hamster's sebaceous glands Inh. Vs Cx (%); for inhibition in vivo at 0.001 mg: dose 1 μg applied topically on left ear of intact male hamster; for inhibition in vivo at 0.003 mg: dose 3 μg applied topically on left ear of intact male hamster; for inhibition in vivo at 0.01 mg: dose 10 μg applied topically on left ear of intact male hamster
Description: Column 3 represents the dose of antiandrogenic compounds applied on the left ear of the intact male hamster.
Column 4 represents the relative inhibition in % of the area of the sebaceous gland of the left ear versus control hamster. Higher values approaching the effect of castration are preferable
The Antiandrogenic activity of antiandrogenic compounds has been measured using a Histomorphometry assay of the Ear Sebaceous Glands in the Hamster
1. Animals Male Golden Syrian, Hamster (SYR) of 110-120 g were obtained from Harlan Sprague Dawlay (Madison, USA) and housed up to 2 per cage in plastic cages in a temperature (22±3° C.) and light (12 h light/day, lights on at 7 h 15) in a controlled environment. The hamsters were fed with Certified Rodent Diet 5002 (pellet) and tap water ad libitum. The animals were acclimated for at least five days before the beginning of the study. Animals were randomly assigned to groups of eight hamsters. One group of hamsters was castrated under isoflurane-induced anesthesia on the day of dosing initiation (SD 1) and used as control group.
2. Treatments To evaluate the antiandrogenic activity, tested compounds were applied topically on the inner part of the left ear, once daily, for 14 days. Ten μL solution of acetone: ethanol: propylene Glycol (1:1:2; v:v:v) containing 0.1, 0.3 or 1.0 mg/mL of tested compound was carefully applied onto a region between the two cartilage ridges of the ventral surface of left pinna. For animals in the castrated and intact control groups ten-μL vehicle was applied onto the left ear. No solution will be applied on the right ear for any animals of the study.
3. Postmortem Observations and Measurements On Study Day 15, the hamsters were euthanized by cervical dislocation under isoflurane anesthesia. The left and right ears were collected attached together by the head skin, flat fixed on a paper and were immersed in 10% neutral buffered formalin. From the flat fixed ear and using paper puncture that makes a hole of 6 mm, the region where solution was applied was collected from each ear. Using a scalpel blade, the collected 6 mm round ear specimen was cut in the middle between the two cartilage ridges. The two equal parts of the ear round specimen were embedded in paraffin. After processing the tissue, the two parts were vertically embedded parallel to each other in a way that the flat 6 mm area was facing out. From each paraffin block, one section (5 μm thick) was cut and collected on a glass slide. Thus, each slide contained two elongated sections of 6 mm length. Slides were stained with hematoxylin and eosin.
4. Analysis of Sebaceous Gland Area Using the video camera and objective lens number X5 of the light microscope, the resulting field that appears on the screen has a length of 0.953 mm. From the glass slide, when we have examined the first 6 mm long section from the left to the right, the first and second fields were ignored and the third and fourth fields were captured for analysis by the image analyzer. Each field has the length of 0.953 mm. With the help of the screen mouse, the sebaceous glands within the whole field length (0.953mm) were marked. Also, an area with the length of the whole field and the height between stratum granulosum and the upper edge of the cartilage was drawn.
The image analyzer calculated the total area of the sebaceous glands (μm^2) in each examined field. We also obtained the area, which has the length of 0.953 mm and the height between stratum granulosum and the cartilage. In addition, the percentage of the area occupied by the glands was obtained. Thus, for each ear, two sections were cut and two fields from each section were analyzed. The total of the four readings was averaged and the mean standard of error calculated by the image analyzer. The results were expressed in μm^2 as the total surface of glands per field and also as percentage of the area occupied by the glands.

[2] = system: Shionogi mouse mammary carcinoma cells; assay: In vitro androgenic/antiandrogenic activity, DHT-stimulated Shionogi cell number; type: cell-based; conditions: for Shionogis (In Vitro) VS OH-FLU (ratio of Ki of hydroxyflutamide versus tested compound): OH-Flu = 1, DHT-stimulated cell number, higher values preferable
rat prostate = assay: Systemic antiandrogenic activity in immature male rats (castrated, DHT implant), prostate weight; conditions: po, 168 h, 0.5 mg/animal per os once daily 7 days, % efficacy relative to inhibition by flutamide, read-out: RAT (in vivo) (systemic) Prostate Inh. % inh. (0.5 mg, per os)
Method: Column 5 represents the % of antiandrogenic efficacy in rat prostate, relatively to the percentage of inhibition of flutamide calculated by the formula:
(§1) % efficacy versus Flu=100×% inhib (compound)/% inhib (Flu).
(§2) Where the percentage of inhibition (% inhib) is calculated by the following formula:
% lnhib=100−[W (compound)−W (control)/W (DHT)−W (control)]×100.
W is the weight of the prostate.
(§3) C Systemic antiandrogenic activity (immature male rats)
(§4) 1. Animals Immature male rats (Crl:CD(SD)Br) 22 to 24-day old were obtained from Charles-River, Inc. (St-Constant, Quebec, Canada) and housed up to 5 per cage in plastic bins in a temperature (23±1° C.)—and light (12 h light/day, lights on at 7h15)—controlled environment. The rats were fed rodent chow and tap water ad libitum. The day following their arrival, the animals were orchidectornized (CX) under Isoflurane anesthesia via scrotal route and randomly assigned to groups of 5 animals. One silastic implant of dihydrotestosterone (DHT; length of implant: 1 cm) was inserted subcutaneously in the dorsal area of animals at the time of orchidectomy. One group of 5 animals was CX only as control (no DHT implant inserted).
(§5) 2. Treatments To evaluate the antiandrogenic activity, tested compounds were administered orally by gavage once daily at a dose of 0.5 mg/animal for 7 days (SD 1 to 7). Compounds were solubilized (when possible) in dimethylsulfoxide (DMS, 10% final concentration) and administered as suspension in 0.4% methylcellulose. Rats in CX control and CX+DHT control groups received the vehicle alone during the 7-day period. One group of animals received the antiandrogen Flutamide as reference. The animals were killed by cervical dislocation under isoflurane anesthesia on the 8th morning following castration. The ventral prostate and seminal vesicles were rapidly dissected and weighed.
(§6) 3. Calculations and Statistical Analysis The percentage of inhibition (% inhib) is calculated by the following formula:
(§7) % Inhib=100−[W (compound)−W (control)/W (DHT)−W (control)]×100.
(§8) This percentage is reported as % of efficacy, relatively to the percentage of inhibition of flutaride calculated by the formula: % efficacy versus Flu=100×% inhib (compound)/% inhib (Flu).
(§9) W is the weight of the prostate or the seminal vesicle.

rat seminal vesicle = assay: Systemic antiandrogenic activity in immature male rats (castrated, DHT implant), seminal vesicle weight; conditions: po, 168 h, 0.5 mg/animal per os once daily 7 days, % efficacy relative to inhibition by flutamide, read-out: RAT (in vivo) (systemic) SV Inh % inh. (0.5 mg, per os)
Method: Column 6 represents the % of antiandrogenic efficacy on the rat seminal vesicle, relative to the percentage of inhibition by flutamide calculated by the formula:
as §1, §2, §7
W is the weight of the seminal vesicle.
as §3, §4, §5, §6, §8, §9

[3] = Mus musculus, read-out: Shionogis (In Vitro) IC50(nM), inhibition of DHT-stimulated cell number, 10-12 days

Row | IC50 ([2]; Mus musculus, inhibition of DHT-stimulated cell number, 10-12 days, read-out: Shionogis (In Vitro) IC50) | IC50 ([2]; inhibition of DHT-stimulated cell number, 10-12 days, read-out: Shionogis (In Vitro) IC50) | Compound | inhibition in vivo at 0.001 mg [1] | inhibition in vivo at 0.003 mg [1] | inhibition in vivo at 0.01 mg [1] | Shionogis (In Vitro) VS OH-FLU (ratio of Ki of hydroxyflutamide versus tested compound) [2] | inhibition in vivo at 0.5 mg (rat prostate) | inhibition in vivo at 0.5 mg (rat seminal vesicle) | IC50 [2, 3] | IC50 ([2]; read-out: Shionogis (In Vitro) IC50, inhibition of DHT-stimulated cell number, 10-12 days)
1 |  |  | CC[C@]1(C)CC2C3CCc4c(C#N)cccc4C3CC[C@]2(C)C1=O (some centres unmarked) [EM-3217] | 4.8% | 0% | 42.8% | ˜1 |  |  |  | 
2 |  |  | CC#Cc1ccc2c(c1C#N)CCC1C2CC[C@]2(C)C(=O)CCC12 (some centres unmarked) [EM-4142] | 18.5% | 18.5% | 37% | 3.7 | 0% | 22% | 29 nM | 
3 |  |  | CC#C[C@@H]1CC2C3CCc4c(C#N)cccc4C3CC[C@]2(C)[C@H]1O (some centres unmarked) [EM-2627] | 14.3% | 42.8% | 66.6% | 8.3 | 0% | 25% | 7.8 nM | 
4 |  |  | C[C@@H]1CC2C3CCc4c(C#N)cccc4C3CC[C@]2(C)C1=O (some centres unmarked) [EM-3223] | 25.9% | 37% | 59.2% |  | 0% | 18% |  | 
5 |  |  | CC[C@@]1(C)C[C@H]2[C@@H]3CCc4c(C#N)cccc4[C@H]3CC[C@]2(C)[C@H]1O [EM-3221, 4cyano-16α-methyl-16β-ethyl-1,3,5(10)-estratrien-17β-ol] | 0% | 9.5% | 33.3% | 6.6 | 0% | 1% | 3.2 nM | 
6 |  |  | CCC=C[C@]1(O)CCC2C3CCc4c(C#N)cccc4C3CC[C@@]21C (some centres unmarked) [EM-3144] | 9.5% | 71.4% | 71.4% | 8.5 | 8% | 12% | 4.4 nM | 
7 | 11 nM | 8.6 nM | C[C@@H]1CCC2C3CCc4c(C#N)cccc4C3CC[C@]2(C)[C@H]1O (some centres unmarked) [EM-3803] | 33.3% | 51.8% | 37% |  | 0% | 30% |  | 
8 |  |  | CC[C@]1(C)CC2C3CCc4c(C#N)cccc4C3CC[C@]2(C)[C@H]1O (some centres unmarked) [EM-3226] | 7.4% | 29.6% | 33.3% | 5.9 | 0% | 0% | 3.6 nM | 
9 |  |  | CC(C)[C@H]1CC2C3CCc4c(C#N)cccc4C3CC[C@]2(C)[C@H]1O (some centres unmarked) [EM-4157] | 18.5% | 29.6% | 40.7% | 5 | 0% | 55% | 33 nM | 
10 |  |  | CCC1(CC)CC2C3CCc4c(C#N)cccc4C3CC[C@]2(C)C1=O (some centres unmarked) [EM-3411] | 3.7% | 14.8% | 62.9% | ˜1 | 0% | 10% |  | 
11 |  |  | CC1(C)CC2C3CCc4c(C#N)cccc4C3CC[C@]2(C)[C@H]1O (some centres unmarked) [EM-2557] | 52.4% | 42.8% | 66.6% |  | 6% | 0% | 15 nM | 18 nM
12 |  |  | CCCC#C[C@@H]1CC2C3CCc4c(C#N)cccc4C3CC[C@]2(C)[C@H]1O (some centres unmarked) [EM-3165] | 19% | 14.3% | 23.8% | 7.2 | 1% | 14% | 15.1 nM | 
13 |  |  | CC[C@@H]1CC2C3CCc4c(C#N)cccc4C3CC[C@]2(C)[C@H]1O (some centres unmarked) [EM-3852] |  | 66.6% | 70.4% | 8.7 | 0% | 0% | 16.1 nM | 
14 |  |  | CC1(C)C[C@H]2[C@@H]3CCc4cc(F)ccc4[C@H]3CC[C@]2(C)[C@H]1O [EM-3497, 3fluoro-16,16-dimethyl-1,3,5(10)-estratrien-17β-ol] | 62.9% | 62.9% | 77.7% | 1.5 | 0% | 0% | 46 nM | 
15 |  |  | CC(=O)O[C@H]1C(C)(C)CC2C3CCc4c(C#N)cccc4C3CC[C@@]21C (some centres unmarked) [EM-3178] | 9.5% | 9.5% | 38.1% | 4.1 | 0% | 0% | 17 nM | 
